Assay results published in ChEMBL document CHEMBL5303573, “Mapping human microbiome drug metabolism by gut bacteria and their genes” (Nature, 2019).

Tests used:
[1] = The drug is tested on Bifidobacterium breve strain: DSM20213 for biotransformation. The drug concentrations were measured before and after a 12-h incubation by liquid-chromatography-coupled mass spectrometry (LC–MS); conditions: 2 µM
[2] = The drug is tested on Collinsella aerofaciens strain: ATCC25986 for biotransformation. The drug concentrations were measured before and after a 12-h incubation by liquid-chromatography-coupled mass spectrometry (LC–MS); conditions: 2 µM
[3] = The drug is tested on Collinsella intestinalis strain: DSM13280 for biotransformation. The drug concentrations were measured before and after a 12-h incubation by liquid-chromatography-coupled mass spectrometry (LC–MS); conditions: 2 µM
[4] = The drug is tested on Alistipes indistinctus strain: DSM22520 for biotransformation. The drug concentrations were measured before and after a 12-h incubation by liquid-chromatography-coupled mass spectrometry (LC–MS); conditions: 2 µM
[5] = The drug is tested on Bacteroides caccae strain: ATCC43185 for biotransformation. The drug concentrations were measured before and after a 12-h incubation by liquid-chromatography-coupled mass spectrometry (LC–MS); conditions: 2 µM
[6] = The drug is tested on Bacteroides cellulosilyticus strain: DSM14838 for biotransformation. The drug concentrations were measured before and after a 12-h incubation by liquid-chromatography-coupled mass spectrometry (LC–MS); conditions: 2 µM
[7] = The drug is tested on Bacteroides finegoldii strain: DSM17565 for biotransformation. The drug concentrations were measured before and after a 12-h incubation by liquid-chromatography-coupled mass spectrometry (LC–MS); conditions: 2 µM
[8] = The drug is tested on Bacteroides fragilis strain: HMW610 for biotransformation. The drug concentrations were measured before and after a 12-h incubation by liquid-chromatography-coupled mass spectrometry (LC–MS); conditions: 2 µM
[9] = The drug is tested on Bacteroides fragilis strain: ATCC43859 for biotransformation. The drug concentrations were measured before and after a 12-h incubation by liquid-chromatography-coupled mass spectrometry (LC–MS); conditions: 2 µM
[10] = The drug is tested on Bacteroides ovatus strain: ATCC8483 for biotransformation. The drug concentrations were measured before and after a 12-h incubation by liquid-chromatography-coupled mass spectrometry (LC–MS); conditions: 2 µM
[11] = The drug is tested on Bacteroides pectinophilus strain: ATCC43243 for biotransformation. The drug concentrations were measured before and after a 12-h incubation by liquid-chromatography-coupled mass spectrometry (LC–MS); conditions: 2 µM
[12] = The drug is tested on Bacteroides sp. WH2 strain: WH2 for biotransformation. The drug concentrations were measured before and after a 12-h incubation by liquid-chromatography-coupled mass spectrometry (LC–MS); conditions: bacteroides sp. wh2, 12 h, 2 µM
[13] = The drug is tested on Bacteroides xylanisolvens strain: DSM18836 for biotransformation. The drug concentrations were measured before and after a 12-h incubation by liquid-chromatography-coupled mass spectrometry (LC–MS); conditions: 2 µM
[14] = The drug is tested on Parabacteroides merdae strain: ATCC43184 for biotransformation. The drug concentrations were measured before and after a 12-h incubation by liquid-chromatography-coupled mass spectrometry (LC–MS); conditions: 2 µM
[15] = The drug is tested on Anaerococcus hydrogenalis strain: DSM7454 for biotransformation. The drug concentrations were measured before and after a 12-h incubation by liquid-chromatography-coupled mass spectrometry (LC–MS); conditions: 2 µM
[16] = The drug is tested on Blautia luti strain: DSM14534 for biotransformation. The drug concentrations were measured before and after a 12-h incubation by liquid-chromatography-coupled mass spectrometry (LC–MS); format: ADME; set-up: dose 2 uM, timepoint 0 vs 12 hours; conditions: 2 µM
[17] = The drug is tested on Clostridium asparagiforme strain: DSM15981 for biotransformation. The drug concentrations were measured before and after a 12-h incubation by liquid-chromatography-coupled mass spectrometry (LC–MS); format: ADME; set-up: dose 2 uM, timepoint 0 vs 12 hours; conditions: enterocloster asparagiformis, 2 µM
[18] = The drug is tested on Clostridium scindens strain: ATCC35704 for biotransformation. The drug concentrations were measured before and after a 12-h incubation by liquid-chromatography-coupled mass spectrometry (LC–MS); conditions: 2 µM
[19] = The drug is tested on Clostridium sporogenes strain: ATCC15579 for biotransformation. The drug concentrations were measured before and after a 12-h incubation by liquid-chromatography-coupled mass spectrometry (LC–MS); conditions: 2 µM
[20] = The drug is tested on Clostridium symbiosum strain: ATCC14940 for biotransformation. The drug concentrations were measured before and after a 12-h incubation by liquid-chromatography-coupled mass spectrometry (LC–MS); conditions: 2 µM
[21] = The drug is tested on Dorea formicigenerans strain: ATCC27755 for biotransformation. The drug concentrations were measured before and after a 12-h incubation by liquid-chromatography-coupled mass spectrometry (LC–MS); conditions: 2 µM
[22] = The drug is tested on Enterococcus faecalis strain: V583 for biotransformation. The drug concentrations were measured before and after a 12-h incubation by liquid-chromatography-coupled mass spectrometry (LC–MS); conditions: 2 µM
[23] = The drug is tested on Eubacterium rectale strain: ATCC33656 for biotransformation. The drug concentrations were measured before and after a 12-h incubation by liquid-chromatography-coupled mass spectrometry (LC–MS); conditions: agathobacter rectalis, 2 µM
[24] = The drug is tested on Eubacterium ventriosum strain: ATCC27560 for biotransformation. The drug concentrations were measured before and after a 12-h incubation by liquid-chromatography-coupled mass spectrometry (LC–MS); format: ADME; set-up: dose 2 uM, timepoint 0 vs 12 hours; conditions: 2 µM
[25] = The drug is tested on Ruminococcus gnavus strain: ATCC29149 for biotransformation. The drug concentrations were measured before and after a 12-h incubation by liquid-chromatography-coupled mass spectrometry (LC–MS); conditions: mediterraneibacter gnavus, 2 µM
[26] = The drug is tested on Ruminococcus lactaris strain: ATCC29176 for biotransformation. The drug concentrations were measured before and after a 12-h incubation by liquid-chromatography-coupled mass spectrometry (LC–MS); conditions: 2 µM
[27] = The drug is tested on Ruminococcus torques strain: ATCC27756 for biotransformation. The drug concentrations were measured before and after a 12-h incubation by liquid-chromatography-coupled mass spectrometry (LC–MS); format: ADME; set-up: dose 2 uM, timepoint 0 vs 12 hours; conditions: 2 µM
[28] = The drug is tested on Subdoligranulum variabile strain: DSM15176 for biotransformation. The drug concentrations were measured before and after a 12-h incubation by liquid-chromatography-coupled mass spectrometry (LC–MS); conditions: 2 µM
[29] = The drug is tested on Edwardsiella tarda strain: ATCC23685 for biotransformation. The drug concentrations were measured before and after a 12-h incubation by liquid-chromatography-coupled mass spectrometry (LC–MS); conditions: 2 µM
[30] = The drug is tested on Escherichia coli strain: BW25113 for biotransformation. The drug concentrations were measured before and after a 12-h incubation by liquid-chromatography-coupled mass spectrometry (LC–MS); conditions: 2 µM
[31] = The drug is tested on Providencia rettgeri strain: DSM1131 for biotransformation. The drug concentrations were measured before and after a 12-h incubation by liquid-chromatography-coupled mass spectrometry (LC–MS); format: ADME; set-up: dose 2 uM, timepoint 0 vs 12 hours; conditions: 2 µM
[32] = bacteroides fragilis, 12 h, 2 µM
Description: The drug is tested on Bacteroides fragilis strain: NCTC 9343 for biotransformation. The drug concentrations were measured before and after a 12-h incubation by liquid-chromatography-coupled mass spectrometry (LC–MS)

[33] = bacteroides intestinalis, 12 h, 2 µM
Description: The drug is tested on Bacteroides intestinalis strain: DSM17393 for biotransformation. The drug concentrations were measured before and after a 12-h incubation by liquid-chromatography-coupled mass spectrometry (LC–MS)

[34] = bacteroides thetaiotaomicron, 12 h, 2 µM
Description: The drug is tested on Bacteroides thetaiotaomicron strain: VPI-5482 for biotransformation. The drug concentrations were measured before and after a 12-h incubation by liquid-chromatography-coupled mass spectrometry (LC–MS)

[35] = parabacteroides distasonis, 12 h, 2 µM
Description: The drug is tested on Parabacteroides distasonis strain: ATCC8503 for biotransformation. The drug concentrations were measured before and after a 12-h incubation by liquid-chromatography-coupled mass spectrometry (LC–MS)

[36] = parabacteroides johnsonii, 12 h, 2 µM
Description: The drug is tested on Parabacteroides johnsonii strain: DSM18315 for biotransformation. The drug concentrations were measured before and after a 12-h incubation by liquid-chromatography-coupled mass spectrometry (LC–MS)

[37] = segatella copri, 12 h, 2 µM
Description: The drug is tested on Prevotella copri strain: DSM18205 for biotransformation. The drug concentrations were measured before and after a 12-h incubation by liquid-chromatography-coupled mass spectrometry (LC–MS)

[38] = anaerostipes sp., 12 h, 2 µM
Description: The drug is tested on Anaerostipes sp. strain: fecal isolate for biotransformation. The drug concentrations were measured before and after a 12-h incubation by liquid-chromatography-coupled mass spectrometry (LC–MS)

[39] = enterocloster bolteae, 12 h, 2 µM
Description: The drug is tested on Clostridium bolteae strain: ATCCBAA-613 for biotransformation. The drug concentrations were measured before and after a 12-h incubation by liquid-chromatography-coupled mass spectrometry (LC–MS)

[40] = roseburia intestinalis, 12 h, 2 µM
Description: The drug is tested on Roseburia intestinalis strain: L1-82 for biotransformation. The drug concentrations were measured before and after a 12-h incubation by liquid-chromatography-coupled mass spectrometry (LC–MS)

[41] = The drug is tested on Bifidobacterium longum subsp. Infantis strain: CCUG52486 for biotransformation. The drug concentrations were measured before and after a 12-h incubation by liquid-chromatography-coupled mass spectrometry (LC–MS); conditions: 2 µM
[42] = The drug is tested on Eggerthella lenta strain: ATCC25559 for biotransformation. The drug concentrations were measured before and after a 12-h incubation by liquid-chromatography-coupled mass spectrometry (LC–MS); conditions: 2 µM
[43] = The drug is tested on Bacteroides coprophilus strain: DSM18228 for biotransformation. The drug concentrations were measured before and after a 12-h incubation by liquid-chromatography-coupled mass spectrometry (LC–MS); conditions: 2 µM
[44] = The drug is tested on Bacteroides dorei strain: DSM17855 for biotransformation. The drug concentrations were measured before and after a 12-h incubation by liquid-chromatography-coupled mass spectrometry (LC–MS); conditions: phocaeicola dorei, 2 µM
[45] = The drug is tested on Bacteroides uniformis strain: ATCC8492 for biotransformation. The drug concentrations were measured before and after a 12-h incubation by liquid-chromatography-coupled mass spectrometry (LC–MS); conditions: 2 µM
[46] = The drug is tested on Odoribacter splanchnicus strain: fecal isolate for biotransformation. The drug concentrations were measured before and after a 12-h incubation by liquid-chromatography-coupled mass spectrometry (LC–MS); conditions: 2 µM
[47] = The drug is tested on Anaerotruncus colihominis strain: DSM17241 for biotransformation. The drug concentrations were measured before and after a 12-h incubation by liquid-chromatography-coupled mass spectrometry (LC–MS); conditions: 2 µM
[48] = The drug is tested on Clostridium ramosum strain: DSM1402 for biotransformation. The drug concentrations were measured before and after a 12-h incubation by liquid-chromatography-coupled mass spectrometry (LC–MS); conditions: thomasclavelia ramosa, 2 µM
[49] = The drug is tested on Coprococcus comes strain: ATCC27758 for biotransformation. The drug concentrations were measured before and after a 12-h incubation by liquid-chromatography-coupled mass spectrometry (LC–MS); format: ADME; set-up: dose 2 uM, timepoint 0 vs 12 hours; conditions: 2 µM
[50] = The drug is tested on Eubacterium hallii strain: DSM3353 for biotransformation. The drug concentrations were measured before and after a 12-h incubation by liquid-chromatography-coupled mass spectrometry (LC–MS); conditions: anaerobutyricum hallii, 2 µM
[51] = bacteroides fragilis, 12 h, 2 µM; remark: listed apart in the source
Description: The drug is tested on Bacteroides fragilis strain: 3397 (T10) for biotransformation. The drug concentrations were measured before and after a 12-h incubation by liquid-chromatography-coupled mass spectrometry (LC–MS)

[52] = bacteroides stercoris, 12 h, 2 µM
Description: The drug is tested on Bacteroides stercoris strain: ATCC43183 for biotransformation. The drug concentrations were measured before and after a 12-h incubation by liquid-chromatography-coupled mass spectrometry (LC–MS)

[53] = bacteroides thetaiotaomicron, 12 h, 2 µM; remark: listed apart in the source
Description: The drug is tested on Bacteroides thetaiotaomicron strain: 3731 for biotransformation. The drug concentrations were measured before and after a 12-h incubation by liquid-chromatography-coupled mass spectrometry (LC–MS)

[54] = limosilactobacillus reuteri cf48-3a, 12 h, 2 µM
Description: The drug is tested on Lactobacillus reuteri CF48-3A strain: BEI HM-102 for biotransformation. The drug concentrations were measured before and after a 12-h incubation by liquid-chromatography-coupled mass spectrometry (LC–MS)

Bacterial Biotransformation [3] | Bacterial Biotransformation [5] | Bacterial Biotransformation [7] | Bacterial Biotransformation [11] | Bacterial Biotransformation [12] | Bacterial Biotransformation [16] | Bacterial Biotransformation [17] | Bacterial Biotransformation [18] | Bacterial Biotransformation [20] | Bacterial Biotransformation [24] | Bacterial Biotransformation [25] | Bacterial Biotransformation [26] | Bacterial Biotransformation [27] | Bacterial Biotransformation [28] | Bacterial Biotransformation [30] | Bacterial Biotransformation [32] | Bacterial Biotransformation [33] | Bacterial Biotransformation [34] | Bacterial Biotransformation [35] | Bacterial Biotransformation [36] | SMILES | other results
Compound NOT metabolized | Compound NOT metabolized | Compound NOT metabolized | Compound NOT metabolized | Compound NOT metabolized | Compound NOT metabolized | Compound NOT metabolized | Compound NOT metabolized | Compound NOT metabolized | Compound NOT metabolized | Compound NOT metabolized | Compound NOT metabolized | Compound NOT metabolized | Compound NOT metabolized | Compound NOT metabolized | Compound NOT metabolized | Compound NOT metabolized | Compound NOT metabolized | Compound NOT metabolized | Compound NOT metabolized | Cc1ccc(-c2cc(C(F)(F)F)nn2-c2ccc(S(N)(=O)=O)cc2)cc1 [CELECOXIB] | Bacterial Biotransformation [1]: Compound NOT metabolized; Bacterial Biotransformation [2]: Compound NOT metabolized; Bacterial Biotransformation [4]: Compound NOT metabolized; Bacterial Biotransformation [6]: Compound NOT metabolized; Bacterial Biotransformation [8]: Compound NOT metabolized; Bacterial Biotransformation [9]: Compound NOT metabolized; Bacterial Biotransformation [10]: Compound NOT metabolized; Bacterial Biotransformation [13]: Compound NOT metabolized; Bacterial Biotransformation [14]: Compound NOT metabolized; Bacterial Biotransformation [15]: Compound NOT metabolized; Bacterial Biotransformation [19]: Compound metabolized; Bacterial Biotransformation [21]: Compound NOT metabolized; Bacterial Biotransformation [22]: Compound NOT metabolized; Bacterial Biotransformation [23]: Compound NOT metabolized; Bacterial Biotransformation [29]: Compound NOT metabolized; Bacterial Biotransformation [31]: Compound NOT metabolized; Bacterial Biotransformation [37]: Compound metabolized; Bacterial Biotransformation [38]: Compound NOT metabolized; Bacterial Biotransformation [39]: Compound NOT metabolized; Bacterial Biotransformation [40]: Compound NOT metabolized
Compound NOT metabolized | Compound metabolized | Compound metabolized | Compound NOT metabolized | Compound NOT metabolized | Compound NOT metabolized | Compound NOT metabolized | Compound NOT metabolized | Compound NOT metabolized | Compound NOT metabolized | Compound NOT metabolized | Compound NOT metabolized | Compound NOT metabolized | Compound NOT metabolized | Compound NOT metabolized | Compound metabolized | Compound metabolized | Compound metabolized | Compound metabolized | Compound metabolized | CC#CCn1c(N2CCC[C@@H](N)C2)nc2c1c(=O)n(Cc1nc(C)c3ccccc3n1)c(=O)n2C [LINAGLIPTIN] | Bacterial Biotransformation [41]: Compound NOT metabolized; Bacterial Biotransformation [42]: Compound NOT metabolized; Bacterial Biotransformation [43]: Compound metabolized; Bacterial Biotransformation [44]: Compound metabolized; Bacterial Biotransformation [45]: Compound metabolized; Bacterial Biotransformation [46]: Compound metabolized; Bacterial Biotransformation [47]: Compound NOT metabolized; Bacterial Biotransformation [48]: Compound NOT metabolized; Bacterial Biotransformation [49]: Compound NOT metabolized; Bacterial Biotransformation [50]: Compound NOT metabolized; Bacterial Biotransformation [51]: Compound metabolized; Bacterial Biotransformation [52]: Compound metabolized; Bacterial Biotransformation [53]: Compound metabolized; Bacterial Biotransformation [37]: Compound metabolized; Bacterial Biotransformation [38]: Compound NOT metabolized; Bacterial Biotransformation [39]: Compound NOT metabolized; Bacterial Biotransformation [54]: Compound NOT metabolized
